According to patent US20170121319A1, “Herbicidal Compounds” (Syngenta Participations AG, priority 2014, published 2017):

Tests used:
Assay type in all cases: in vivo
Design in all cases: key: 5=total damage to plant; 0=no damage to plant
[1] = tested on: ECHCG = Echinochloa crus-galli; assay: Pre-emergence herbicidal activity, glasshouse pot test
Protocol: (§1) Seeds of a variety of test species were sown in standard soil in pots. After cultivation for one day (pre-emergence) under controlled conditions in a glasshouse (at 24/16° C., day/night; 14 hours light; 65% humidity), the plants were sprayed with an aqueous spray solution derived from the formulation of the technical active ingredient in acetone/water (50:50) solution containing 0.5% Tween 20 (polyoxyethelyene sorbitan monolaurate, CAS RN 9005-64-5). The test plants were then grown in a glasshouse under controlled conditions (at 24/16° C., day/night; 14 hours light; 65% humidity) and watered twice daily. After 13 days, the test was evaluated (5=total damage to plant; 0=no damage to plant). Pre- and post-emergence testing was carried out as detailed above on the compounds A1, A2, A4 and A5 and their respective S-enantiomers.

[2] = tested on: AMARE = Amaranthus retroflexus; assay: as above
Protocol: as §1

[3] = tested on: ABUTH = Abutilon theophrasti; assay: as above
Protocol: as §1

ZEAMX = Zea mays [4] = assay: as above
Protocol: as §1

LOLPE [5] = assay: as above
Protocol: as §1

SETFA = Setaria faberi [6] = assay: as above; conditions: for SEFTA damage score (0-5): comparison of enantiomers
Protocol: as §1

[7] = tested on: ECHCG = Echinochloa crus-galli; assay: Post-emergence herbicidal activity, glasshouse pot test
Protocol: (§2) Seeds of a variety of test species were sown in standard soil in pots. After 8 days cultivation (post-emergence) under controlled conditions in a glasshouse (at 24/16° C., day/night; 14 hours light; 65% humidity), the plants were sprayed with an aqueous spray solution derived from the formulation of the technical active ingredient in acetone/water (50:50) solution containing 0.5% Tween 20 (polyoxyethelyene sorbitan monolaurate, CAS RN 9005-64-5). The test plants were then grown in a glasshouse under controlled conditions (at 24/16° C., day/night; 14 hours light; 65% humidity) and watered twice daily. After 13 days, the test was evaluated (5=total damage to plant; 0=no damage to plant). Pre- and post-emergence testing was carried out as detailed above on the compounds A1, A2, A4 and A5 and their respective S-enantiomers.

[8] = tested on: AMARE = Amaranthus retroflexus; assay: as above
Protocol: as §2

[9] = tested on: ABUTH = Abutilon theophrasti; assay: as above
Protocol: as §2

ZEAMX = Zea mays [10] = assay: as above
Protocol: as §2

LOLPE [11] = assay: as above
Protocol: as §2

SETFA = Setaria faberi [12] = assay: as above; conditions: for SEFTA damage score (0-5): comparison of enantiomers
Protocol: as §2

[13] = comparison of enantiomers, 62.5 g/Ha
[14] = comparison of enantiomers, 250 g/Ha
[15] = 1000 g/Ha, evaluated after 13 days

| SMILES | ECHCG damage score (0-5) [1, 13] | ECHCG damage score (0-5) [1, 14] | AMARE damage score (0-5) [2, 13] | AMARE damage score (0-5) [2, 14] | ABUTH damage score (0-5) [3, 13] | ABUTH damage score (0-5) [3, 14] | ZEAMX damage score (0-5) (ZEAMX = Zea mays [4]; [13]) | ZEAMX damage score (0-5) (ZEAMX = Zea mays [4]; [14]) | LOLPE damage score (0-5) (LOLPE [5]; [13]) | SEFTA damage score (0-5) (SETFA = Setaria faberi [6]; 250 g/Ha) | ECHCG damage score (0-5) [7, 13] | ECHCG damage score (0-5) [7, 14] | AMARE damage score (0-5) [8, 13] | AMARE damage score (0-5) [8, 14] | ABUTH damage score (0-5) [9, 13] | ABUTH damage score (0-5) [9, 14] | ZEAMX damage score (0-5) (ZEAMX = Zea mays [10]; [14]) | LOLPE damage score (0-5) (LOLPE [11]; [13]) | LOLPE damage score (0-5) (LOLPE [11]; [14]) | SEFTA damage score (0-5) (SETFA = Setaria faberi [12]; 62.5 g/Ha) | also measured |
| --- | --- | --- | --- | --- | --- | --- | --- | --- | --- | --- | --- | --- | --- | --- | --- | --- | --- | --- | --- | --- | --- |
| CCO[C@H]1C(O)N(c2cc(C(C)(C)F)on2)C(=O)N1C (stereo partly drawn) [A5 S-enantiomer, reference compound] | 0 | 0 | 5 | 5 | 0 | 0 | 0 | 0 | 0 | 0 | 0 | 0 | 1 | 5 | 0 | 1 | 0 | 0 | 0 | 0 | LOLPE damage score (0-5) (LOLPE [5]; [14]): 0; SEFTA damage score (0-5) (SETFA = Setaria faberi [6]; 62.5 g/Ha): 0; ZEAMX damage score (0-5) (ZEAMX = Zea mays [10]; [13]): 0; SEFTA damage score (0-5) (SETFA = Setaria faberi [12]; 250 g/Ha): 1 |
| CO[C@@H]1C(O)N(c2cc(C(C)(C)C)on2)C(=O)N1C (some centres unmarked) [Example A1] | 5 | 5 | 5 | 5 | 4 | 2 | 4 | 5 | 1 | 5 | 5 | 5 | 5 | 5 | 2 | 5 | 5 | 5 | 5 | 5 | ECHCG damage score (0-5) [1, 15]: 5; AMARE damage score (0-5) [2, 15]: 5; ABUTH damage score (0-5) [3, 15]: 5; ZEAMX damage score (0-5) (ZEAMX = Zea mays [4]; [15]): 3; LOLPE damage score (0-5) (LOLPE [5]; [15]): 5; LOLPE damage score (0-5) (LOLPE [5]; [14]): 5; SETFA damage score (0-5) (SETFA = Setaria faberi [6]; [15]): 5; SEFTA damage score (0-5) (SETFA = Setaria faberi [6]; 62.5 g/Ha): 4; ECHCG damage score (0-5) [7, 15]: 5; AMARE damage score (0-5) [8, 15]: 5; ABUTH damage score (0-5) [9, 15]: 5; ZEAMX damage score (0-5) (ZEAMX = Zea mays [10]; [15]): 5; ZEAMX damage score (0-5) (ZEAMX = Zea mays [10]; [13]): 5; LOLPE damage score (0-5) (LOLPE [11]; [15]): 5; SETFA damage score (0-5) (SETFA = Setaria faberi [12]; [15]): 5; SEFTA damage score (0-5) (SETFA = Setaria faberi [12]; 250 g/Ha): 5 |
| CCO[C@H]1C(O)N(c2cc(C(C)(C)C)on2)C(=O)N1C (single isomer, unassigned) [A2 S-enantiomer, reference compound] | 0 | 3 | 5 | 5 | 1 | 1 | 1 | 1 | 1 | 0 | 0 | 1 | 5 | 5 | 1 | 1 | 1 | 0 | 1 | 0 |  |
